One experiment has as its system Raw264.7 cells. In words: NO assay (nitrite, Griess reagent) in Raw264.7 macrophages. The conditions noted are these: 500 μM inhibitor; cells cultured on AM. Type of experiment: cell-based, mouse. As for the experimental part:
Raw 264.7 cells, a mouse macrophage cell line, were obtained from the ATCC and cultured in phenol red-free Dulbecco's modified Eagle's medium (DMEM) supplemented with 10% fetal bovine serum, 50 μg/ml gentamicin, and 1.25 μg/ml fungizone in 100 mm culture dishes. When cells became 70%-80% confluent, the medium was removed and cells were treated with trypsin/EDTA for 10 min at 25° C. After digestion, cells were still firmly attached to the dish, so the trypsin/EDTA solution was removed. […] After centrifugation at 500×g for 5 min, the medium was removed, the cell pellet resuspended in the DMEM/ITS medium, cells counted, and cell density adjusted to 0.5×10^6/ml. […]
At the end of the cultivation, the cell culture medium in each well was harvested individually and centrifuged at 12,000×g for 10 min at 4° C. […] NO production was assessed by measuring the nitrite, its stable degradation product, using Griess reagent according to the manufacturer's protocol. Briefly, 50 μl of the cleared medium was mixed with 100 μl of the Griess reagents (ICN Biomedicals, Aurora, Ohio), after 15 min the absorbance was measured at 550 nm using Fusion™ universal microplate analyzer (Packard, Meriden, Conn.). The amount of nitrite was calculated from a standard curve of sodium nitrite (NaNO2; Sigma, St. Louis, Mo.).
For orientation: Griess reagent forms a coloured azo dye with nitrite.

The test system of a further experiment is Raw 264.7 cells. In words: Hoechst-33342 nuclear staining of macrophages. Type of experiment: cell-based, mouse. The conditions noted are these: 500 μM inhibitor; cells on AM with IFN γ. From the text: To determine if the aforementioned cell death was mediated by apoptosis, cells in parallel experiments were subjected to Hoechst-33342 staining. Fragmented nuclei with strong Hoechst staining were found more in AM/IFN γ as compared to AM without IFN γ and to their plastic controls. Percentages of Hoechst-33342-positive apoptotic nuclei were 12.4±2.7% (PL), 16.5±3.1% (PL/IFN γ), 14.7±1.1% (AM), and 63.8±7.9% (AM/IFN γ). There was no statistical difference between PL and PL/IFN γ and between PL and AM (all p>0.05), while there was a statistical difference between AM and AM/IFN γ and between PL/IFNγ and AM/IFNγ (all p<0.001). […] In contrast, there was no such giant cell in AM/IFNγ cultures.

A further experiment concerns TGF-β1 promoter. Put plainly: TGF-β1 promoter suppression (adenoviral promoter-luciferase) in human corneal fibroblasts. Type of experiment: cell-based. The protocol:
When human corneal fibroblasts cultured on 100 mm plastic dish in DMEM/10% FBS reached 80% confluency (˜1.0×10^6 cells), cells were washed twice with DMEM/10% FBS. Adenoviruses-TGF-β1 promoter-luciferase (MOI=37.5) and Adeno-CMV-beta-gal (MOI=30) were added to the culture plates with 10 ml of the fresh DMEM/10% FBS and cells were incubated at 37° C. for 4 hours, and trypsinized for 5 minutes using 4 ml prewarmed trypsin/EDTA. After trypsin/EDTA activity was neutralized with 8 ml of DMEM/10% FBS, cells were collected into a 15 ml tube and centrifuged at 1,500 rpm (˜600×g) for 5 min. After decanting the medium, cells were resuspended in 15 ml DMEM/10% FBS, and cell viability was measured by trypan blue stain. Viable 3×10^4 cells were seeded on a plastic 24 well or on the stromal surface of AM inserts. A total of 4 wells or inserts were prepared. Cells were then incubated at 37° C. in a CO2 incubator for 48 hours.
After carefully removing the growth medium from each well, cells were rinsed with 0.5 ml PBS at lease twice, taking care not to dislodge attached cells. After removing as much as PBS in the well, 100 μl 1× lysis buffer was added to cover the cells, and cells were mechanically scraped and transferred to a microcentrifuge tube placed on ice. Cell lysates were collected by vortexing for 10-15 sec and centrifuging at 12,000×g for 15 sec at room temperature. […]

Experiment [1] relates to human corneal fibroblasts. Put plainly: Cell morphology and density of human corneal fibroblasts after treatment. Type of experiment: cell-based. The conditions noted are these: HA alone; low concentrations of AME or jelly extracts. The source says:
The above changes were even more dramatic in lyophilized AME or L/AME than their non-lyophilized counterparts in AME or Jelly extracts, respectively (FIG. 6).

Three compounds from patent publication US8455009B2, “Amniotic membrane preparations and purified compositions and anti-inflammation methods” (TissueTech, Inc., priority 2005, dated 2013) can be followed below.

As to `CC(=O)O.CNC(=N)NCCC[C@H](N)C(=O)O` [L-NMMA, NG-monomethyl-L-arginine acetate], the “IFN γ induced nitrite level with NO synthase inhibitor” value in the experiment with Raw264.7 cells was determined as 19.8 ± 4.9 µM. Further, the “extent of macrophage apoptosis with NO synthase inhibitor” value in the experiment with Raw 264.7 cells is on record as “not significantly attenuated”.

As to `CC(=N)NCCCC[C@H](N)C(=O)O.Cl` [L-NIL, L-N-6-(1-iminoethyl) lysine hydrochloride], the “IFN γ induced nitrite level with NO synthase inhibitor” value with Raw264.7 cells is 14.0 ± 9.8 µM. For the same compound, the “extent of macrophage apoptosis with NO synthase inhibitor” value with Raw 264.7 cells is given as “not significantly attenuated”.

Turning to hyaluronic acid [HA], in the experiment on TGF-β1 promoter (100 μg/ml), the “suppressive activity on TGF-β1 promoter, HA alone” value is “mild suppressive activity”. Moreover, the “suppression of TGF-β1 promoter activation” value in the experiment on TGF-β1 promoter (compared to the PBS control, normalized with beta-galatosidase activity, FIG. 5) was “showed suppression”. For the same compound, the “change in cell morphology” value in experiment [1] is reported as “no change in cell morphology”.
